“Also recorded” adds a separate entry of the source. Positions of bridges follow the written chain, without caps; N, C: chain ends. Non-standard residues stand in square brackets, D forms with d. Residues, ends and D or L forms follow the SMILES beside them.
Columns and labels:
[1] = system: C. albicans preformed biofilm; test: Eradication of preformed biofilm (XTT); assay type: cell-based; conditions: peptide 6.25 μM, 24-h old biofilm, 24 h treatment
Procedure: (§1) C. albicans ATCC 90028, C. auris DSM 21092, C. glabrata DSM 11226, C. tropicalis DSM11951 and C. parapsilosis DSM 4874 grown on YPD Agar (1% w/v yeast extract, 2% w/v peptone, 2% w/v glucose, 1.5% Agar) were cultured in Tryptone soya broth supplemented with 0.1% glucose for 16–18 h at 37 °C, washed twice using sterile phosphate-buffered saline (PBS) and standardized to […] as required for the experiments. RPMI1640 medium (Thermo Fisher Scientific, Waltham, MA, USA) buffered to a pH of 7.0 with 0.165 M MOPS was used for growing the biofilms of all Candida species.
(§2) Biofilm inhibition and eradication assays were performed as previously described in [37]. […] After the incubation period, non-adherent cells were detached by washing each sample three times in sterile PBS. […] The total biomass was quantified by a crystal violet assay for the inhibition. The vital biomass was quantified by XTT for test eradication by using the tetrazolium 2,3-bis (2-methoxy-4-nitro-5 sulfophenyl)-5-[(phenylamine) carbonyl]-2H-hydroxide reduction assay (XTT) (Sigma-Aldrich, St. Luis, MO, USA) according to the manufacturer’s instructions. The absorbance was measured spectrophotometrically at 492 nm. The percentages of inhibition or eradication were calculated as follows: % biofilm reduction = Abs control − Abs sample/Abs control × 100.

[2] = system: C. parapsilosis preformed biofilm; test: Eradication of preformed biofilm (XTT); assay type: cell-based; conditions: peptide 6.25 μM, 24-h old biofilm, 24 h treatment
Procedure: as §1, §2

[3] = system: C. albicans ATCC 90028 biofilms; test: Eradication of preformed biofilm, bright-field microscopy; assay type: cell-based; conditions: peptide 12.5 μM
Procedure: Biofilm inhibition and eradication assays were performed as previously described in [37]. […] After the incubation period, non-adherent cells were detached by washing each sample three times in sterile PBS. Then, the samples were fixed, and the biofilms were stained with a 0.1% solution of crystal violet. To test the effect against the established biofilm, fresh growth medium containing peptides at the same concentrations was added in the preformed 24-h old biofilms and incubated for another 24 h. The total biomass was quantified by a crystal violet assay for the inhibition. The vital biomass was quantified by XTT for test eradication by using the tetrazolium 2,3-bis (2-methoxy-4-nitro-5 sulfophenyl)-5-[(phenylamine) carbonyl]-2H-hydroxide reduction assay (XTT) (Sigma-Aldrich, St. Luis, MO, USA) according to the manufacturer’s instructions. The absorbance was measured spectrophotometrically at 492 nm. The percentages of inhibition or eradication were calculated as follows: % biofilm reduction = Abs control − Abs sample/Abs control × 100.
Optical microscopy images were acquired by using a Leica AF6000LX-DM6M-Z microscope (Leica Microsystems, Mannheim, Germany) controlled by LAS-X (Leica Application Suite; rel. 3.0.13) software and equipped with a Leica Camera DFC7000T. Images were acquired by focusing on the Petri dish surface with a 50× objective in a bright field. […]

[4] = Peptide aggregation imaged by AFM on mica; assay type: physicochemical
Excerpt: XE-100 Atomic Force Microscopy (AFM) (by Park Systems, Suwon, Korea) was used for the imaging of the most promising peptide (3) with and without liposome interaction. Surface imaging was obtained in non-contact mode using SSS-NCHR 10 M (by Park Systems) Si/Al-coated cantilever with a sharp tip (typical tip radius: 2 nm, <5 nm max), a resonance frequency between 200 and 400 kHz and a nominal force constant of 42 N/m. […] The AFM images were processed and analyzed by the home software (XEI by Park Systems). The images were flattened to remove the background slope and adjusted in terms of contrast and brightness. For the sample preparation for AFM, the AFM imaging was performed on a substrate of a Muscovite mica surface (of about 1 cm^2 in area) that owned a root mean square (rms) surface roughness of less than 0.5 nm on a 1000 × 1000 nm^2 area. The 3-µL aliquots of the sample solutions were casted on mica immediately after cleavage with adhesive tape to establish their cleanliness and charge activity. In fact, after the cleavage, the K^+ ions bonding the mica layers were highly mobile, resulting in a positive overcharging of the mica surface, which enabled the deposition of molecules that held a […]. After 2 min, every sample was gently washed with deionized water to remove the sample excesses and then dried at room temperature under a ventilated fume hood.

[5] = Circular dichroism in liposomes mimicking fungal membranes; assay type: physicochemical; conditions: SUVs PE/PC/PI/ergosterol
Procedure: The circular dichroism spectra of the selected peptides (3, 7, 15 and 16) were recorded in small unilamellar vesicles (SUVs) composed of PE/PC/PI/Ergosterol (5:4:1:2, w/w/w/w, final lipid concentration = 0.01 mM) and DOPC/Chol (70:30, ratio in moles, final lipid concentration = 0.1 mM), between 190 and 260 nm on a JASCO J-710 CD spectropolarimeter at 25 °C using quartz cells with a 0.1-cm path length. The SUVs were prepared as reported in the following protocol. Once the lipid films were prepared as described above, they were hydrated with a phosphate buffer (5 mM, pH 7.4) (DOPC:Chol) or water (PE/PC/PI/Ergosterol) for 1 h and sonicated for 40 min. […] We accumulated the data three times, and all spectral data were subtracted from the background. Each spectrum converted the signal to the mean molar ellipticity, and we calculated the ratio of the ellipticities at 222 and 208 nm to discriminate between the monomeric and oligomeric states of the helices. The helix content was calculated as follows: [θ]222/(−40,000[1 − 2.5/n)], where [θ]222 is the ellipticity measurement at 222 nm and n is the number of amino acid residues.

[6] = absence of liposomes, peptide 50 μM

| SMILES | eradication of preformed biofilm, C. albicans [1] [%] | eradication of preformed biofilm, C. parapsilosis [2] [%] | eradication effect on preformed C. albicans biofilms by optical microscopy [3] | height of aggregates (clusters) on mica by AFM [4, 6] [nm] | width of aggregates (clusters) on mica by AFM [4, 6] | thickness of peptide layer on mica by AFM, presence of liposomes ([4]; after interaction with liposomes mimicking fungal membranes) [nm] | conformation by CD in fungal membrane-like SUVs, 10 μM ([5]; peptide 10 μM) | conformation by CD in fungal membrane-like SUVs, 50 μM ([5]; peptide 50 μM) |
| --- | --- | --- | --- | --- | --- | --- | --- | --- |
| CC[C@H](C)[C@H](NC(=O)[C@H](CCCNC(=N)N)NC(=O)[C@@H]1CCC(=O)NCCCC[C@H](NC(=O)[C@H](Cc2ccccc2)NC(=O)[C@H](Cc2c[nH]c3ccccc23)NC(=O)[C@@H]2CCCN2C(=O)[C@@H](NC(=O)[C@@H](N)Cc2ccccc2)C(C)C)C(=O)N[C@@H](CCCCN)C(=O)N[C@@H](Cc2ccccc2)C(=O)N[C@H](CC(C)C)C(=O)N1)C(=O)N[C@@H](CC(C)C)C(N)=O [compound 3] (H-FVPWFKKF[dL]ERIL-NH2; lactam 6-10; N-terminus assumed) | 50 | 50 | effective in the eradication of biofilm | ≤ 20 | up to 300 nm | 4 | – | – |
| CC[C@H](C)[C@H](NC(=O)[C@H](CCCNC(=N)N)NC(=O)[C@@H]1CSSC[C@H](NC(=O)[C@H](Cc2ccccc2)NC(=O)[C@H](Cc2c[nH]c3ccccc23)NC(=O)[C@@H]2CCCN2C(=O)[C@@H](NC(=O)[C@@H](N)Cc2ccccc2)C(C)C)C(=O)N[C@@H](CCCCN)C(=O)N[C@@H](Cc2ccccc2)C(=O)N[C@H](CC(C)C)C(=O)N1)C(=O)N[C@@H](CC(C)C)C(N)=O [compound 16] (H-FVPWFCKF[dL]CRIL-NH2; disulfide 6-10; N-terminus assumed) | – | – | – | – | – | – | random coil conformation; also recorded: random coil structure | α-helical molecular aggregates |
